Test results as given in PMC8266232, “Design, synthesis, and analysis of antiproliferative and apoptosis-inducing activities of nitrile derivatives containing a benzofuran scaffold: EGFR inhibition assay and molecular modelling study” (Journal of Enzyme Inhibition and Medicinal Chemistry, 2021).
Where two headings read alike, the source gives them in different places.

What was measured:
[1] = system: WI38 normal cell; assay: MTT cytotoxicity on normal fibroblast cells; assay type: cell-based; details: Homo sapiens, WI-38; MTT assay, non tumour normal cell WI38
[2] = system: MCF-7 cells (human breast adenocarcinoma); assay: MTT antiproliferative assay, MCF-7; assay type: cell-based; details: Homo sapiens, MCF7, MTT assay, MCF-7, triplicate; read-out: In vitro cytotoxicity IC50, MCF-7
Experimental: (§1) The in vitro antiproliferative activity of all synthesised compounds was evaluated by an MTT assay according to the reported method[47]^,[48].
(§2) 2. Experimental procedure
(§3) 2.1. Antiproliferative screening
(§4) The in vitro antiproliferative activity of all synthesized compounds was evaluated by an MTT assay according to the reported method using five different human cancer cell lines, including […]
(§5) cervical carcinoma (HeLa), and human prostate cancer (PC-3). The cell lines were obtained from ATCC via a holding company for biological products and vaccines (VACSERA), Cairo, Egypt. The MTT assay is a colorimetric assay used for measuring the cellular growth based on the reduction of the yellow MTT to a purple formazan derivative by mitochondrial succinate dehydrogenase in viable cells. The color intensity of the formazan dye is correlated to the number of viable cells. The […]
(§6) IC50% values were calculated using dose response curves. The percentage of relative cell viability was calculated as (A570 of treated samples)/(A570 of untreated sample) × 100. The cytotoxic activity was defined as the concentration of the compound that caused 50% growth inhibition compared with the growth of an untreated cell. […]

[3] = system: HePG2, HCT-116, MCF-7, PC3, HeLa cell lines; assay: MTT antiproliferative assay, IC50 range over the cancer cell line panel; assay type: cell-based; details: Homo sapiens, HePG2, HCT-116, MCF-7, PC3, HeLa, read-out: IC50 range over all tested cancer cell lines
Experimental: as §1, §2, §3, §4, §5, §6

[4] = system: HePG2 cells (hepatocellular carcinoma); assay: MTT antiproliferative assay, HePG2; assay type: cell-based, human; details: HePG2, triplicate, read-out: In vitro cytotoxicity IC50, HePG2
Experimental: as §1, §2, §3, §4, §5, §6

[5] = system: PC3 cells (human prostate carcinoma); assay: MTT antiproliferative assay, PC3; assay type: cell-based; details: PC-3, PC3, triplicate, read-out: In vitro cytotoxicity IC50, PC3
Experimental: as §1, §2, §3, §4, §5, §6

[6] = system: HCT-116 cells (colorectal carcinoma); assay: MTT antiproliferative assay, HCT-116; assay type: cell-based, human; details: HCT-116, triplicate, read-out: In vitro cytotoxicity IC50, HCT-116
Experimental: as §1, §2, §3, §4, §5, §6

[7] = system: HeLa cells (cervical carcinoma); assay: MTT antiproliferative assay, HeLa; assay type: cell-based, human; details: Homo sapiens, triplicate, read-out: In vitro cytotoxicity IC50, HeLa
Experimental: as §1, §2, §3, §4, §5, §6

[8] = molecular target: T1, EGFR TK (Homo sapiens, UniProt P00533); assay: EGFR TK inhibition assay (luminescent, Kinase-Glo MAX); assay type: biochemical
T1 construct: add 20 μl of diluted EGFR enzyme and incubate at 30°C for 40
Experimental: 2.2. Epidermal growth factor inhibition assay
In vitro luminescent EGFR tyrosine kinase assay, using Kinase-Glo® MAX as a detection reagent using DP‐Glo™ reagent that measures the adenosine diphosphate (ADP) formed from a kinase reaction, were performed; this luminescent signal positively correlates with ADP amount and kinase activity. In 17 μl of distilled water, 6 μl of Kinase assay buffer and 1 μl ATP and 1 μl PTK substrate were mixed (master mixture). In every well, mix 20 μl of the master mixture and 5 μl of Inhibitor solution (Test Inhibitor) for positive control, and use 5 μl of the same solution without inhibitor (Inhibitor buffer) as the blank solution; add 20 μl of diluted EGFR enzyme and incubate at 30°C for 40

[9] = system: HCT-116 cells; assay: Annexin V-FITC/PI apoptosis assay, HCT-116; details: HCT-116, 10 µM, 24 h
Experimental: (§7) A comparison was made to the control (DMSO) and reference (gefitinib).
(§8) The cell line samples were analysed using FACSCalibur flow cytometer.
(§9) with PI. The cells were compared with the control, which was treated with DMSO.
Analysis of cellular apoptosis
(§10) concentration, respectively, and then incubated for 24 h. Following incubation, 1 –5 × 10^5 cells were
(§11) harvested and suspended in 500 µ L of the binding buffer, 5 µ L of annexin V-FITC, and 5 µL of PI.
(§12) annexin V-FITC conjugate is specially engineered to produce an enhanced fluorescence signal and
(§13) photostability. The annexin V-FITC kit included annexin V-FITC for detecting apoptosis as well as PI
(§14) for detecting necrosis. Thus, apoptosis and necrosis could be effectively differentiated. Detection and
(§15) analysis of the annexin V-FITC binding by flow cytometry was conducted using a FITC signal
(§16) detector (typically FL1). PI staining was evaluated by a phycoerythrin emission signal detector

[10] = system: MCF-7 cells; assay: Cell cycle analysis by PI flow cytometry, MCF-7; details: MCF-7, 10 µM, 24 h
Experimental: as §7
(§17) Cell cycle analysis and induction of apoptosis
(§18) Flow cytometry analysis of the cell cycle distribution
(§19) incubation period, the cells were collected, centrifuged, and ﬁxed with ice-cold ethanol (70%). The cells were subsequently treated with a buffer containing RNAse A and 0.1% Triton X-100, and stained
(§20) with PI. The cells were compared with the control, which was treated with DMSO. The DNA content
was measured by flow cytometry [50-52].

[11] = system: MCF-7 cells; assay: Annexin V-FITC/PI apoptosis assay, MCF-7; details: MCF-7, 10 µM, 24 h
Experimental: as §7, §8, §9
Analysis of cellular apoptosis
as §10, §11, §12, §13, §14, §15, §16

[12] = system: HCT-116 cells; assay: Cell cycle analysis by PI flow cytometry, HCT-116; details: HCT-116, 10 µM, 24 h
Experimental: as §7, §17, §18, §19, §20
was measured by flow cytometry [50-52].

[13] = Homo sapiens, HCT-116, MTT assay

T1 sequence (P00533 25-1210): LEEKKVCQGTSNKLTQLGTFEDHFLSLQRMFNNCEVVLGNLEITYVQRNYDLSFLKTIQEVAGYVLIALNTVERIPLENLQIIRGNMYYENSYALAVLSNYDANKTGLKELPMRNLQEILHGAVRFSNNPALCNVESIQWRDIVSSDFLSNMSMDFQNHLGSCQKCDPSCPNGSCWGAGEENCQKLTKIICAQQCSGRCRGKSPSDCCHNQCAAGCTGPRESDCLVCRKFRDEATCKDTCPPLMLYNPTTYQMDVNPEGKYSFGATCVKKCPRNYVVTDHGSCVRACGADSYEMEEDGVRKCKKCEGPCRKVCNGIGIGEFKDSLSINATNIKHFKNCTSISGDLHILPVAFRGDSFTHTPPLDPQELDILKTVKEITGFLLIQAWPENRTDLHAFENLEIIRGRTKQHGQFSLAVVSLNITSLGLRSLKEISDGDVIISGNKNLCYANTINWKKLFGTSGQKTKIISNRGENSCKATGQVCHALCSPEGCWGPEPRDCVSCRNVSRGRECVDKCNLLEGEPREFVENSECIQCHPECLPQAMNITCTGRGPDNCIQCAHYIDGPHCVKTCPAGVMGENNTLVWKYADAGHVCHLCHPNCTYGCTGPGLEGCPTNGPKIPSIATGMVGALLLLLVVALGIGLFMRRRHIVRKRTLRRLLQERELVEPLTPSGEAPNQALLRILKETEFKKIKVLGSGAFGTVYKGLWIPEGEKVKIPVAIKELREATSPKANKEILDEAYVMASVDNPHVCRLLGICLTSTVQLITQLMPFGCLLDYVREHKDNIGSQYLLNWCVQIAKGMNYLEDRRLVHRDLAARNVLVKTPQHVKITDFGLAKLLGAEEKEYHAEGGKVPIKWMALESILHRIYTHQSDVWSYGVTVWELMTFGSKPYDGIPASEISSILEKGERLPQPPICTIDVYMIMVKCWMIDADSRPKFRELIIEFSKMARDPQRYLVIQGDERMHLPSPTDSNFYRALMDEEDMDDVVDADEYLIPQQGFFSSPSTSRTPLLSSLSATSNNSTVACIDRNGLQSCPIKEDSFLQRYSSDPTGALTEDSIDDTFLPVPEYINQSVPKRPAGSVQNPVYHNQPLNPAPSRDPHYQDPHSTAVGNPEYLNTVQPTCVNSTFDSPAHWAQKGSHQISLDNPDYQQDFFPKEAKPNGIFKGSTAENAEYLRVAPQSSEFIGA

Structure (SMILES) | melting point | IC50 [1] | IC50 [2] | IC50 ([4]; Homo sapiens, HepG2, MTT assay) | IC50 [5] | IC50 [6, 13] | IC50 [7] | further results
COc1ccc(CCNc2nccc(-c3cc4ccccc4o3)c2C#N)cc1 [Compound 12, 4-(Benzofuran-2-yl)-2-(4-methoxyphenethylamino)nicotinonitrile] | 156 to 158 °C | 76.3 ± 4.14 µM | 61.5 ± 3.5 µM | 70.5 ± 3.8 µM | 93.5 ± 4.4 µM | 49.7 ± 2.9 µM | 85.4 ± 4.7 µM | 
COc1cccc2c1C(=O)c1c(O)c3c(c(O)c1C2=O)C[C@@](O)(C(=O)CO)C[C@@H]3O[C@H]1C[C@H](N)[C@H](O)[C@H](C)O1 [DOX, Doxorubicin, reference compound] |  | 55.3 ± 3 µM |  | 4.5 ± 0.2 µM |  |  |  | 
COc1cc2ncnc(Nc3ccc(F)c(Cl)c3)c2cc1OCCCN1CCOCC1 [Gefitinib, reference compound] |  |  |  |  |  |  |  | Late apoptosis ([9]; control 0.11): 7.47%; Necrosis ([9]; control 0.12): 1.8%; Early apoptosis ([9]; control 0.16): 7.22%; Apoptosis, Total ([9]; control 0.39): 16.49%; %Pre/G1 ([10]; control 0.55, '% Apoptosis' in Figure 6A): 13.55%; %G2/M ([10]; control 3.66): 23.63%; %S ([10]; control 27.37): 16.51%; %G0/G1 ([10]; control 66.42): 46.31%; Necrosis ([11]; control 0.15): 1.64%; Early apoptosis ([11]; control 0.16): 4.28%; Late apoptosis ([11]; control 0.24): 7.63%; Apoptosis, Total ([11]; control 0.55): 13.55%; %Pre/G1 ([12]; control 0.39, '% Apoptosis' in Figure 5A): 16.49%; %G2/M ([12]; control 4.19): 21.71%; %S ([12]; control 25.21): 13.34%; %G0/G1 ([12]; control 70.21): 48.37%

Second part, led by results:

melting point | Structure (SMILES) | IC50 [1] | IC50 [2] | IC50 ([4]; Homo sapiens, HepG2, MTT assay) | IC50 [5] | IC50 [6, 13] | IC50 [7] | further results
164 to 166 °C | N#Cc1c(-c2cc3ccccc3o2)ccnc1NCCO [Compound 7, 4-(Benzofuran-2-yl)-2-(2-hydroxyethylamino)nicotinonitrile] | 59.5 ± 3.23 µM | 40.8 ± 2.5 µM | 53.4 ± 2.9 µM | 70.1 ± 3.8 µM | 38.6 µM | 73.3 ± 4.2 µM | IC50 [3]: 38.6 to 73.3 µM; IC50 ([6]; MTT assay): 38.6 ± 2 µM
124 to 126 °C | N#Cc1c(-c2cc3ccccc3o2)ccnc1NCCCO [Compound 8, 4-(Benzofuran-2-yl)-2-(3-hydroxypropylamino)nicotinonitrile] | 151 ± 8.22 µM |  | 16.1 to 23.7 µM | 36.7 ± 2.8 µM | 8.81 to 13.8 µM | 58.8 ± 3.7 µM | IC50 [3]: 13.8 to 58.8 µM; IC50 ([4]; MTT assay): 23.7 ± 1.8 µM; IC50 ([6]; MTT assay): 13.8 ± 1.3 µM; IC50 [8]: 4.24 µM
186 to 188 °C | N#Cc1c(-c2cc3ccccc3o2)ccnc1NC1CCCCC1 [Compound 9, 4-(Benzofuran-2-yl)-2-(cyclohexylamino)nicotinonitrile] |  | 35.2 ± 2.2 µM | 44.7 ± 2.7 µM | 51.1 ± 3.6 µM | 29.5 ± 1.8 µM | 73.6 ± 4.1 µM | 
180 to 182 °C | N#Cc1c(-c2cc3ccccc3o2)ccnc1NCc1ccccc1 [Compound 10, 4-(Benzofuran-2-yl)-2-(benzylamino)nicotinonitrile] |  | 19.7 ± 1.6 µM | 34.3 ± 2.1 µM | 30.9 ± 2.6 µM | 27.5 ± 1.5 µM | 46.2 ± 3 µM | IC50 [8]: 1.12 µM
